Read-outs that look alike come from different tables or passages of the source.
Key:
Test in all cases: PTP IC50 assay, pNPP or FDP as substrate
Type in all cases: biochemical
PTP MU = biological target: T1, PTP MU (Homo sapiens, UniProt P28827); settings: comparison of R groups; read-out: IC50 Mu
T1 construct: made in house; host or cells: E. coli BL-21 (pGEX 6P-1)

PTP SHP2 = biological target: T2, PTP SHP2 (Homo sapiens, UniProt Q06124)
T2 construct: The catalytic domain was amplified using the following oligonucleotides; made in house; host or cells: Sf-9 insect cells (pFastBac-G2T)
T2 sequence (Q06124 247-517 limits assumed): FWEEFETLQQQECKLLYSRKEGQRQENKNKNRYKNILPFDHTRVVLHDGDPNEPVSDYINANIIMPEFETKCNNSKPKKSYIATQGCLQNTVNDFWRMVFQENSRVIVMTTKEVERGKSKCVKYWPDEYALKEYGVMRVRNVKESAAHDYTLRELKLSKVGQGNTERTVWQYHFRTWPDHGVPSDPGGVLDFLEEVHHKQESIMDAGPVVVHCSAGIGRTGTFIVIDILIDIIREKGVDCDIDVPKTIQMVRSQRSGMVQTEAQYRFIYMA

PTP ALPHA = biological target: T3, PTP ALPHA (Homo sapiens, UniProt P18433); settings: 25° C.
T3 construct: RTPα intracellular domain construct was obtained; made in house; host or cells: E. coli BL-21 (pGEX 3X)

PTP SIGMA = biological target: T4, PTP SIGMA (Homo sapiens, UniProt Q13332)
T4 construct: made in house; host or cells: E. coli BL-21 (pGEX 6P-1)
T4 sequence (Q13332 1320-1660 limits assumed): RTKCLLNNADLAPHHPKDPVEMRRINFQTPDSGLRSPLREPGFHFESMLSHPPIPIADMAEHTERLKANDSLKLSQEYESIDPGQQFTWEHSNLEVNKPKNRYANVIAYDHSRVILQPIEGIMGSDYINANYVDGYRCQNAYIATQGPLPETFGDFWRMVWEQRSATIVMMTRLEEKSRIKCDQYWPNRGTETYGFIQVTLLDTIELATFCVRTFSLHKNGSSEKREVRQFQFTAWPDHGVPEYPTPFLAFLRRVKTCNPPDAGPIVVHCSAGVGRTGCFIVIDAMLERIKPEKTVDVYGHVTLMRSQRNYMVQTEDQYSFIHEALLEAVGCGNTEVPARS
Outline: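 The enzyme was a GST-PTP fusion from a human brain cDNA clone, assayed at its own optimum pH and 25° C. Reactions were stopped with NaOH, read at 410 nm, and IC50 was interpolated from % inhibition.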

PTP EPSILON = biological target: T5, PTP EPSILON (Homo sapiens, UniProt P23469)
T5 construct: made in house; host or cells: Sf-9 insect cells (pFastBac-G2T); a pGEX 6P-1 construct also existed
T5 sequence (P23469 80-393 limits assumed): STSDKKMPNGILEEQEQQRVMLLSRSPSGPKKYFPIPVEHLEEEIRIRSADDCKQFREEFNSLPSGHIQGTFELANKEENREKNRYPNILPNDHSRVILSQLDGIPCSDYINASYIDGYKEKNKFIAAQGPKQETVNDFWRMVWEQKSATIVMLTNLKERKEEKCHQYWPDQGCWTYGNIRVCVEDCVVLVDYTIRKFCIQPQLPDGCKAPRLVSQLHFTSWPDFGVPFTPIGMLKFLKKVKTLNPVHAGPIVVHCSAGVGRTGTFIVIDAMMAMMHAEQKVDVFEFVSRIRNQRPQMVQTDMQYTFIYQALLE
Outline: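 Human PTPε was GST-tagged and subcloned for baculovirus expression. After NaOH quench, p-nitrophenol was read at 410 nm with no-enzyme correction, and IC50 was interpolated from % inhibition.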

T1 sequence (P28827 831-1186 limits assumed): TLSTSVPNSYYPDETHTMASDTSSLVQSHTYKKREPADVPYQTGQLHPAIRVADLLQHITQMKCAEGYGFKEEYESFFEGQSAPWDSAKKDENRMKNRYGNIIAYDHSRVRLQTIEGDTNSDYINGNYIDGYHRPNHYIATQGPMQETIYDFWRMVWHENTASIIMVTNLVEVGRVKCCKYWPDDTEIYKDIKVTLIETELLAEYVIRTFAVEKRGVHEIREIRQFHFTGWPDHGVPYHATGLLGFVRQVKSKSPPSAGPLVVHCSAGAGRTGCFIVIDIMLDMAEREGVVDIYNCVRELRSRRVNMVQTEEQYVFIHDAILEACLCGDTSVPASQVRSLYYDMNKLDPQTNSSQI

IC50 (PTP MU): 4 µM
IC50 (PTP SHP2; comparison of R groups, read-out: IC50 SHP2): 3.4 µM
IC50 (PTP SHP2; pNPP or FDP as substrate, 25° C., read-out: PTP IC50 SHP2): 3.4 µM
IC50 (PTP ALPHA): 11.9 µM
IC50 (PTP SIGMA; comparison of R groups, read-out: IC50 Sigma): 44 µM
IC50 (PTP SIGMA; pNPP or FDP as substrate, 25° C., read-out: PTP IC50 Sigma): 44 µM
IC50 (PTP EPSILON; comparison of R groups, read-out: IC50 Epsilon): 16.9 µM
IC50 (PTP EPSILON; pNPP or FDP as substrate, 25° C., read-out: PTP IC50 Epilson): 16.9 µM
SMILES: O=S(=O)(Nc1ccc(Oc2ccc(Oc3ccc(NS(=O)(=O)C(F)(F)F)cc3)cc2)cc1)C(F)(F)F [Example 71, 1,4-Bis(4-trifluoromethylsulfonamidophenoxy)benzene]
